US5871779A, “Treatment of arthropathies with vanadate compounds or analogues thereof” (Mount Sinai Hospital Corporation, priority 1996, dated 1999)
Values joined by “and” are separate entries in the source; they are usually repeats but may differ in a detail not shown here. Identical values can stand only once.

How the values were obtained:
tumor growth [1] = assay: different concentrations of BMOV on tumor growth (Example 23); type: in vivo, mice; set-up: Tumour weight / Tumour weight, Means: unit not given here; conditions: for Tumour weight: individual mice
Protocol: In this experiment we determined the optimum concentration for inhibition of tumor growth as follows.
Forty mice were subcutaneously injected with tumor cells (10×10^6/ml)on day 1. On day 5, the mice were divided into five groups as follows: Group 1; control, PBS injected; Group 2: 0.1% BMOV injected; Group 3: 0.25% BMOV injected; Group 4: 0.5% BMOV injected and; Group 5: 0.75% BMOV injected. All the mice were injected (I.P.) with 2 mg NAC before injection of BMOV. […] The effective concentrations of BMOV are from 0.1% to 0.75%.

PLA2 = assay: release of 3H-arachidonic acid from chondrocytes (PLA2 activity); type: cell-based, bovine; conditions: 100 μM
Protocol: The effect of orthovanadate and N-acetylcysteine on fos, jun and collagenase expression were examined. Bovine articular chondrocytes were isolated and plated as previously described (Kandel R. A. et al. Biochim. Biophys. Acta. 1053, 130-134, 1990). In order to determine the effect of orthovanadate on IL 1 and PMA (phorbol ester) induced responses, chondrocytes were incubated with orthovanadate (100 μM) for 2 hours before stimulation with IL 1 (10 ng/ml) or PMA ([…]). Collagenase production was determined by incubating chondrocytes for 24 hours with IL 1 or PMA and the cell conditioned medium was assayed for collagenase activity using an ELISA procedure as described previously (Kandel et al. supra). PLA2 activity was measured by incorporating ^3 H-arachidonic acid (^3 H-AA) into the cells and then incubating the cells with medium containing 1 mg/ml BSA, either alone or in the presence of IL 1 or PMA, for 10 min. as previously described (Conquer, J. A. […], Biochim. Biophys. Acta. 1134, 1-6). The amount of ^3 H-AA liberated into the supernatant was determined. To measure PGE2 production, chondrocytes were incubated for 6 hours in Ham's F12 medium, either alone or with IL 1 or PMA. The supernatant was analyzed by RIA using an antibody specific for PGE2 (Dr. S. A. Jones, Mount Sinai Hospital, Toronto, Canada). […]

KB8, KB8-5 and KB85-11 = assay: killing of drug resistant ovarian cancer cell lines KB8, KB8-5 and KB85-11; type: cell-based; conditions: 0-50 μM, 48 hours
Protocol: The effect of orthovanadate on three ovarian cancer cell lines, KB8, KB8-5 and KB85-11, which have increasing drug resistance, respectively, relative to the parent cell line, KB3-1 was compared. These drug resistant cell lines are not killed by several classes of chemotherapeutic agents such as colchicine, vinblastine and doxorubicin. In the study, cell lines of increasing drug resistance (KB8, KB8-5 and KB-85-11) and the parent cell line, KB3-1, were incubated in media (DMEM) containing 0-50 μM orthovanadate for 48 hours. The cells were harvested and the number of viable cells determined.

tumor growth [2] = assay: tumor growth in vivo, orthovanadate and N-acetylcysteine (Example 7); set-up: species or system mice
Protocol: Since N-acetylcysteine is converted to glutathione in cells, higher levels of glutathione may not only reduce orthovanadate induced toxicity but may also reduce tumor formation.
Twenty mice were injected subcutaneously with 2×10^5 cells on Day 1. At day 4, the mice were divided into four groups of five mice. Group one (control) received subcutaneous injections of 50 μl of water. Group two received daily intraperitoneal injections of 50 μl of 250 mM N-acetylcysteine. Group three received daily subcutaneous injections of 50 μl of 10 mg/ml of orthovanadate. Group four received daily intraperitoneal injections of 50 μl of […] N-acetylcysteine and 20 minutes later received 50 μl of subcutaneous injection of 50 μl of 10 mg/ml of orthovanadate. On day 10 the treatment was stopped. The animals were sacrificed on Day 13 and analyzed for tumor growth.

[3] = toxicity of orthovanadate by route of administration; type: in vivo, mice
Description: However, subcutaneous injections of up to 500 μgms orthovanadate is tolerated by the animals. Slow administration of the orthovanadate would decrease toxicity and the animals may tolerate higher doses.

[4] = tested on: non-proliferating chondrocytes; assay: viability of non-proliferating chondrocytes (high cell density); type: cell-based; conditions: 0-50 μM, 48 hours
Protocol: In order to compare the effect of orthovanadate on non-proliferating and proliferating chondrocytes, chondrocytes were plated at both high cell density (2×10^6 to 4×10^6 cells/per well on a six well plate) (nonproliferating) and at a lower cell density (5×10^5 to 1×10^6 cells/per well on a six well plate) (proliferating) and then maintained for 48 hours. The cells were then incubated in media (HAMS F12) containing 0-50 μM Orthovanadate for an additional 48 hours. The cells were harvested and the number of viable cells determined.

Structure (SMILES) | Tumour weight (tumor growth [1]; 0.1% BMOV + 2 mg NAC i.p.) | Tumour weight, Means (tumor growth [1]; 0.1% BMOV + NAC) | Tumour weight (tumor growth [1]; 0.25% BMOV + 2 mg NAC i.p.) | Tumour weight, Means (tumor growth [1]; 0.25% BMOV + NAC) | Tumour weight (tumor growth [1]; 0.5% BMOV + 2 mg NAC i.p.) | Tumour weight, Means (tumor growth [1]; 0.5% BMOV + NAC) | Tumour weight (tumor growth [1]; 0.75% BMOV + 2 mg NAC i.p.) | Tumour weight, Means (tumor growth [1]; 0.75% BMOV + NAC) | death of animal (tumor growth [1]; 0.75% BMOV + NAC, mouse 8) | inhibition of IL 1 or PMA induced release of 3H-AA (PLA2) | killing of drug resistant cell lines (KB8, KB8-5 and KB85-11) | detectable tumors (tumor growth [2]; day 13) | animal deaths (tumor growth [2]; orthovanadate 50 μl 10 mg/ml s.c. daily) | toxicity, oral administration ([3]; 0.5 mg/ml oral) | toxicity, intraperitoneal administration ([3]; high doses i.p.) | tolerated subcutaneous injection ([3]; subcutaneous) | effect on chondrocytes plated at high cell density [4]
Cc1occc(=O)c1[O-].Cc1occc(=O)c1[O-].[O]=[V+2] [BMOV, bis(methylmaltolato) oxovanadium (IV)] | 0.44 and 0.40 and 0.48 and 0.62 and 0.54 and 0.84 and 0.18 and 0.87 | 0.55 | 0.14 and 0.23 and 0.73 and 0.04 and 0.21 and 0 | 0.18 | 0.40 and 0.20 and 0.07 and 0.17 and 0.06 and 0 | 0.22 | 0.07 and 0.16 and 0.08 and 0.21 and 0.13 and 0 | 0.09 | died | – | – | – | – | – | – | – | –
[Na+].[Na+].[Na+].[O]=[V]([O-])([O-])[O-] [orthovanadate, sodium orthovanadate] | – | – | – | – | – | – | – | – | – | did not inhibit | equally effective | two had no detectable tumors | One orthovanadate treated animal died | gastric toxicity | toxic to the animals | up to 500 μgms | did not effect
